Test results taken from patent publication US5834487A, “Inhibition of 26S and 20S proteasome by indanones” (CV Therapeutics, priority 1996, dated 1998).
Like-named read-outs stand apart in the source and are kept apart here. Non-standard residues stand in square brackets, D forms with d. Residues, ends and D or L forms follow the SMILES beside them. *: point of attachment. Nva = CCC[C@H](N)C(=O)O; Cbz = O=C(OCc1ccccc1)*

Experiments:
MCF-7 cells = assay: Celltiter 96 Aqueous cell proliferation assay, MCF-7; assay type: cell-based; conditions: MCF-7, 18 hours with compound
Protocol: (§1) Compounds prepared according to the method of Example 1 were assayed against several different cell lines. Cell monolayers were cultured in the presence of test compound for 18 hours to access their ability to inhibit cell proliferation. Cell proliferation was determined colorimetrically using the Celltiter 96 Aqueous non-radioactive cell proliferation assay (Promega) where cell proliferation is directly proportional to absorbance at 490 nm. Results are quoted as the IC50 in μg/ml for inhibition of cell proliferation in various cell types.

RAW cells = assay: Celltiter 96 Aqueous cell proliferation assay, RAW; assay type: cell-based; conditions: 18 hours with compound
Protocol: as §1

[1] = system: LPS induced TNF synthesis; assay: Inhibition of LPS induced TNF synthesis in RAW cells (ELISA); assay type: cell-based; conditions: 1 hour pretreatment, LPS 100 ng/ml, supernatant after 1 hour
Protocol: Compounds prepared according to the method of Example 1 were tested for the inhibition of LPS induced TNF synthesis. RAW cells were pretreated with different concentrations of test compound for 1 hour prior to the administration of lipopolysaccharide (100 ng/mi). Cell culture supernatants were harvested after 1 hour and assayed for TNF concentration by ELISA (Biosource)

OVCAR cells = assay: Celltiter 96 Aqueous cell proliferation assay, OVCAR; assay type: cell-based; conditions: 18 hours with compound
Protocol: as §1

Panc-I cells = assay: Celltiter 96 Aqueous cell proliferation assay, Panc-I; assay type: cell-based; conditions: 18 hours with compound
Protocol: as §1

CaCo cells = assay: Celltiter 96 Aqueous cell proliferation assay, CaCo; assay type: cell-based; conditions: 18 hours with compound
Protocol: as §1

IκB degradation = assay: Inhibition of LPS-induced IκB degradation, Western blot of RAW cell lysates; assay type: cell-based; conditions: 1 hour pretreatment, LPS 100 ng/ml 1 hour, anti-IκBα Western blot (FIG. 1)
Text: (§2) This Example examines the ability of compound 173 and particularly compound 187 described in Tables 1 & 2 above to inhibit proteasome activity as indicated, in part, by the presence of IκB and/or p105 in inhibited cells. In order for NF-κB to translocate to the nucleus in response to a stimulus such as lipopolysaccharide (LPS) and activate transcription two proteolytic events need to occur, namely degradation of the inhibitory protein IκB and processing of p105 to p50. These proteolytic events serve to unmask the nuclear localization signal of NF-κB.
RAW cells were pretreated with different concentrations of test compound for 1 hour prior to the administration of lipopolysaccharide (100 ng/ml). Whole cell lysates were harvested after 1 hour, 10 μg, protein was separated by SDS-PAGE, transferred to nitrocellulose and assayed for immunoreactivity with anti-IκBa antibody. Western blots, (See FIG. 1), were visualized using the Boehringer Mannheim Chemiluminescent detection kit.

[2] = biological target: T1, 20S catalytic subunit of the proteasome (multicatalytic proteinase complex) (Bos taurus, UniProt Q32KL2); assay: 20S proteasome chymotryptic activity, fluorogenic peptide cleavage; assay type: biochemical, bovine; conditions: 50 μM succinyl-leu-leu-val-tyr-7-amino-4-methyl coumarin, 15 minutes at 37° C, pH7.5
T1 construct: was purified to homogeneity from bovine brain according to published methods; from tissue; host or cells: bovine brain
In short: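 Purified bovine-brain 20S proteasome (2 μg) with 0.1-100 μg/ml inhibitor in 50 mM HEPES, 0.1% SDS, pH 7.5. Reaction started with 50 μM Suc-LLVY-AMC, 15 min at 37° C, stopped with pH 4.0 acetate; liberated AMC read by fluorescence (ex 370, em 430 nm).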

p105 to p50 processing = assay: Inhibition of LPS-induced p105 to p50 processing, Western blot of RAW cell lysates; assay type: cell-based; conditions: 1 hour pretreatment, anti-p50 Western blot (FIG. 2)
Text: as §2
Compound 187 as described in Tables 1 & 2 above was used to pretreat RAW cells as described above, and whole cell lysates prepared as described above were analyzed for immunoreactivity toward an anti-p50 antibody. The results, set forth in FIG. 2 indicate that p50 and […] are both present in cells treated with as little as 5 μg/ml of compound 187, while in untreated cells, majority of P 105 has been processed to p50.

NF-κB = assay: Inhibition of LPS-induced translocation of NF-κB to the nucleus, gel mobility shift assay; assay type: cell-based; conditions: RAW cells, 20 μg/ml for 1 hour, then LPS 100 ng/ml 1 hour (FIG. 3)
Protocol: RAW cells were treated for 1 hour with compound 187 (20 μg/ml) and then incubated with lipopolysaccharide (100 ng/ml) for a further one hour. Nuclear fractions were prepared according to standard procedures. Binding reactions for gel mobility shift assays contained 5 μg of nuclear extract protein, 50,000 cpm of ^32 P-labeled NF-κB consensus binding oligonucleotide in the presence and absence of a fifty fold excess of unlabeled oligonucleotide.

[3] = biological target: T2, chymotrypsin-like activity associated with the proteasome (Homo sapiens, UniProt P28074); conditions: cited from earlier work
T2 sequence (P28074 60-263): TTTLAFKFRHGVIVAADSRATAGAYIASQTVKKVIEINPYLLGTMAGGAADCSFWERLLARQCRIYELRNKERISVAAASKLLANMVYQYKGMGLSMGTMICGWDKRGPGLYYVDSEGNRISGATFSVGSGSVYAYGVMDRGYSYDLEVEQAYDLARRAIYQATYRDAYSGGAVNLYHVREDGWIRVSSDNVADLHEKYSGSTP

| IC50 for inhibition of cell proliferation, MCF-7 (MCF-7 cells) [µg/mL] | IC50 inhibition of LPS induced TNF synthesis [1] [µg/mL] | IC50 for inhibition of cell proliferation, OVCAR (OVCAR cells) [µg/mL] | IC50 for inhibition of cell proliferation, CaCo (CaCo cells) [µg/mL] | IC50 [2] [µg/mL] | Compound | IC50 for inhibition of cell proliferation, RAW (RAW cells) [µg/mL] | IC50 for inhibition of cell proliferation, Panc-I (Panc-I cells) [µg/mL] | concentration at which IκB is present in treated cells (IκB degradation) [µg/mL] | concentration at which p50 and p150 are both present in treated cells (p105 to p50 processing) [µg/mL] | accumulation of NF-κB in the nucleus of cells (NF-κB) | Ki ([3]; literature value) [nM] | Ki ([3]; literature values) [nM] |
| --- | --- | --- | --- | --- | --- | --- | --- | --- | --- | --- | --- | --- |
| 6 | 5 | 5 | 8 | 0.5 | COc1ccc2c(c1)C(CC(=O)NC(CC(C)C)C(=O)NC(CC(C)C)C(=O)NC1CCc3ccccc31)CC2=O (mixture of isomers) [Compound 187] | 10 | 7 | ≤ 5 | ≤ 5 | effective in inhibiting the accumulation of NF-κB in the nucleus of cells |  |  |
|  | 3 | 2 |  | 0.08 | COc1ccc2c(c1)C(CC(=O)NC(CC(C)C)C(=O)NC(CC(C)C)C(=O)NCc1c(F)cccc1F)CC2=O (mixture of isomers) [Compound 196] | 7 | 8 |  |  |  |  |  |
|  |  |  |  |  | CCC[C@@H](C=O)NC(=O)[C@H](CC(C)C)NC(=O)[C@H](CC(C)C)NC(=O)OCc1ccccc1 [MG 115, N-carbobenzoxyl-L-leucinyl-L-leucinyl-L-norvalinal] (Cbz-Leu-Leu-[Nva]-aldehyde) |  |  |  |  |  | 21 |  |
|  |  |  |  |  | CSCC[C@@H](C=O)NC(=O)[C@H](CC(C)C)NC(=O)[C@H](CC(C)C)NC(C)=O [LLM, N-acetyl-L-leucinyl-L-leucinyl-methional] (Ac-Leu-Leu-Met-aldehyde) |  |  |  |  |  |  | 140 |
|  |  |  |  |  | N-acetyl-L-leucinyl-L-leucinal-L-norleucinal [ALLN] |  |  |  |  |  |  | 140 |
|  | 3 | 2 |  | 0.2 | COc1ccc2c(c1)C(CC(=O)NC(CC(C)C)C(=O)NC(CC(C)C)C(=O)NCc1ccc3c(c1)OCO3)CC2=O (mixture of isomers) [Compound 197] | 12 | 8 |  |  |  |  |  |
|  | 3 | 3 |  | > 10 | COc1ccc(CNC(=O)C(CC(C)C)NC(=O)C(CC(C)C)NC(=O)CC2CC(=O)c3ccc(OC)cc32)cc1 (mixture of isomers) [Compound 194] | 1 | 8 |  |  |  |  |  |
| 10 | 5 | 8 | 17 | 0.5 | COc1ccc2c(c1)C(CC(=O)NC(CC(C)C)C(=O)NC(CC(C)C)C(=O)NCc1ccccc1)CC2=O (mixture of isomers) [Compound 173] | 20 | 17 | ≤ 5 |  |  |  |  |
